Source: patent US20220362386A1, “LIQUID COMPOSITIONS COMPRISING A LEVODOPA AMINO ACID CONJUGATE AND USES THEREOF” (NeuroDerm, Ltd., priority 2019, published 2022)
Where a name gives a salt, the structure may show the parent alone. Read-outs that look alike come from different tables or passages of the source. Non-standard residues stand in square brackets, D forms with d. Residues, ends and D or L forms follow the SMILES beside them. Dopa = N[C@@H](Cc1ccc(O)c(O)c1)C(=O)O

Experiments:
[1] = In-vitro absorption, Caco-2 A-B permeability; type: in vitro ADME, human; settings: human, Caco-2, pH 7.4, Caco-2 A-B, without verapamil; for Papp A→B at 60 min, 10 μM: 1.0E−05M
Method: (§1) Conditions may be adjusted when necessary.
(§2) D denotes donor and R is receiver. […] V is the volume of the donor or receiver.
(§3) The test was performed with and without verapamil, which is a permeation inhibitor, and the results are presented in Tables 22 (without verapamil) and 34 (with verapamil).

P-gp = experiment: In-vitro absorption, Caco-2 A-B permeability; type: in vitro ADME, human; settings: human, Caco-2, pH 7.4, with verapamil 100 μM on both the A and B sides, Caco-2 A-B, in the presence of verapamil
Method: as §1, §2, §3

[2] = In-vitro metabolism of LDAA compounds using liver microsomes; type: in vitro ADME, human; settings: for half-life at 0.1 μM / microsomal CLint at 0.1 μM: both sexes, human, pooled human liver microsomes; for half-life at 0.1 μM: pH 7.4, 1.0E−07M, 0.1 mg/mL microsomal protein; for microsomal CLint at 0.1 μM: pH 7.4, calculated from the half-life; for microsomal CLint at 0.1 μM / % Compound Remaining 1st / % Compound Remaining 2nd / % Compound Remaining Mean: 1.0E−07M
Method: The stability of test compounds in pooled human liver microsomes was determined on 96-well plates, wherein the test compounds were quantified at five time points by HPLC-MS/MS analysis. The assay matrix included mixed gender and a pool of 50 human liver microsomes, wherein the final microsomal protein concentration was 0.1 mg/mL. The test concentration was 0.1 μM with 0.01% DMSO, 0.25% acetonitrile and 0.25% methanol.
Each test compound was pre-incubated for five minutes with pooled liver microsomes in phosphate buffer (pH 7.4) in a 37° C. shaking water-bath. The reaction was initiated by adding a nicotinamide adenine dinucleotide phosphate (NADPH)-generating system and incubating for 0, 15, 30, 45, and 60 min. The reaction was stopped by transferring the incubation mixture to acetonitrile/methanol. Samples were then mixed and centrifuged, wherein the supernatants were used for HPLC-MS/MS analysis.
In each assay the four reference compounds propranolol, imipramine, verapamil and terfenadine were tested, wherein the propranolol and the imipramine are known to be relatively stable, while the verapamil and the terfenadine are known to be readily metabolized in human liver microsomes.
All samples were analyzed by HPLC-MS/MS using selected reaction monitoring. The HPLC system consisted of a binary LC pump with autosampler, a C-18 column, and a gradient. The conditions were adjusted when necessary.
Peak areas corresponding to the test compound were recorded. The amount of each compound remaining was calculated by comparing the peak area at each time point to time zero. The half-life is calculated from the slope of the initial linear range of the logarithmic curve of compound remaining (%) vs. time, assuming first order kinetics. In addition, the intrinsic clearance (Clint) was calculated from the half-life using the following equation:
Clint(μL/min/mg protein)=0.693/(t1/2×protein concentration)
The results of the in-vitro human liver microsome metabolism tests of various LDAA compounds (10^−7M), in their TFA salt forms, are provided in FIG. 1 and in Table 17, which presents the % of the compound remaining at times 0, 15, 30, 45 and 60 minutes, two half-life measurements and the Clint, calculated as detailed above.

human plasma = experiment: Protein binding, equilibrium dialysis method; type: in vitro ADME; settings: 1.0E-05M; 37° C., 4 h
Method: (§4) The protein binding values of various LDAA compounds in their TFA salt form (10^−5M) were tested in human plasma. The equilibrium dialysis technique was used to separate the fraction of the test compound that was unbound from the fraction of the test compound that bound to proteins during the test. The test was performed on 96-well plates in a dialysis block constructed from Teflon™.
(§5) The protein containing matrix used was human plasma, wherein the assay matrix was human serum albumin and alpha-1 acid glycoprotein. The protein matrix was spiked with each test compound at 10 μM (by default, n=2) with a final DMSO concentration of 1%. The dialysate compartment is loaded with phosphate buffered saline (PBS, pH 7.4), and the sample compartment was loaded with an equal volume of the spiked protein matrix. The dialysis plate was then sealed and incubated at 37° C. for 4 h.
(§6) Following the incubation, samples were taken from each compartment, diluted with PBS followed by the addition of acetonitrile, after which the samples were centrifuged. The supernatants were collected and analyzed by HPLC-MS/MS. The HPLC tests included a binary LC pump with an autosampler, a C18 column (2×20 mm), and gradient elution. The HPLC conditions were adjusted when necessary.
(§7) A control sample (n=2) was prepared from the spiked protein matrix in the same manner; however, no dialysis was performed on the control. It is noted that the control sample served as the bases for the recovery determination.
(§8) Acebutolol, quinidine, and warfarin were used in each assay as reference compounds, wherein it is known that those reference compounds provide low, medium and high human plasma protein binding values, respectively.
(§9) The % of the tested compound that is bound to proteins and the recovery values were calculated as follows:
(§10) Protein binding (%)=100×(Areap−Areab)/Areap
(§11) Recovery (%)=100×(Areap−Areab)/Areac
(§12) The determination of the recovery % serves as an indicator of reliability of the calculated protein binding value. […] This is most likely due to non-specific binding or degradation of the test compound. It is noted that a recovery of above 60% is considered to be reliable, while under 60% recovery, the results of the test are considered to be unreliable.

[3] = Protein binding, equilibrium dialysis method; type: in vitro ADME, human; settings: human, human plasma, pH 7.4, 1.0E-05M
Method: as §4, §5, §6, §7, §8, §9, §10, §11, §12

[4] = read-out: Percent Recovery Mean
[5] = read-out: Half-Life (minute) 1st
[6] = read-out: Half-Life (minute) 2nd
[7] = read-out: Half-Life (minute) Mean

SMILES | Papp A→B at 60 min, 10 μM ([1]; read-out: Permeability 1st) [×10⁻⁶ cm/s] | Papp A→B at 60 min, 10 μM ([1]; read-out: Permeability 2nd) [×10⁻⁶ cm/s] | Papp A→B at 60 min, 10 μM ([1]; read-out: Permeability Mean) [×10⁻⁶ cm/s] | recovery at 60 min, 10 μM ([1]; read-out: Percent Recovery 1st) [%] | recovery at 60 min, 10 μM ([1]; read-out: Percent Recovery 2nd) [%] | recovery at 60 min, 10 μM [1, 4] [%] | recovery at 60 min, 10 μM (P-gp; read-out: Percent Recovery 1st) [%] | recovery at 60 min, 10 μM (P-gp; read-out: Percent Recovery 2nd) [%] | recovery at 60 min, 10 μM (P-gp; [4]) [%] | half-life at 0.1 μM [2, 5] [min] | half-life at 0.1 μM [2, 6] [min] | half-life at 0.1 μM [2, 7] [min] | microsomal CLint at 0.1 μM [2] [µL/min/mg] | % Compound Remaining 1st ([2]; incubation time 0 minutes) [%] | % Protein Bound 1st (human plasma) [%] | % Protein Bound 2nd (human plasma) [%] | % Protein Bound Mean (human plasma) [%] | recovery at 4 h, 10 μM ([3]; read-out: % Recovery 1st) [%] | recovery at 4 h, 10 μM ([3]; read-out: % Recovery 2nd) [%] | recovery at 4 h, 10 μM ([3]; read-out: % Recovery Mean) [%] | further results
N=C(N)NCCC[C@H](NC(=O)[C@@H](N)Cc1ccc(O)c(O)c1)C(=O)O [LD-Arg TFA salt, Levodopa Arginine TFA Salt] | 0.1 | 0.09 | < 0.1 | 26 | 26 | 26 | 25 | 26 | 25 | 42.9 | 40.5 | 42 | 166 | 100 | 44.1 | 26.4 | 35 | 6 | 5 | 6 | % Compound Remaining 2nd ([2]; incubation time 0 minutes): 100%; % Compound Remaining Mean ([2]; incubation time 0 minutes): 100%; % Compound Remaining 1st ([2]; incubation time 15 minutes): 109.7%; % Compound Remaining 2nd ([2]; incubation time 15 minutes): 111.8%; % Compound Remaining Mean ([2]; incubation time 15 minutes): 111%; % Compound Remaining 1st ([2]; incubation time 30 minutes): 84.2%; % Compound Remaining 2nd ([2]; incubation time 30 minutes): 90.9%; % Compound Remaining Mean ([2]; incubation time 30 minutes): 88%; % Compound Remaining 1st ([2]; incubation time 45 minutes): 70%; % Compound Remaining 2nd ([2]; incubation time 45 minutes): {52.4} %; % Compound Remaining Mean ([2]; incubation time 45 minutes): 70%; % Compound Remaining 1st ([2]; incubation time 60 minutes): 37.3%; % Compound Remaining 2nd ([2]; incubation time 60 minutes): 38.6%; % Compound Remaining Mean ([2]; incubation time 60 minutes): 38%
NC(=O)CC[C@H](NC(=O)[C@@H](N)Cc1ccc(O)c(O)c1)C(=O)O [LD-Gln TFA salt, Levodopa Glutamine TFA Salt] (H-[Dopa]-Gln-OH) | 1.83 | 1.47 | 1.7 | 68 | 70 | 69 | 74 | 69 | 71 | 155 | 158 | > 60 | < 116 | 100 | 99.7 | 99.8 | 99 | 77 | 78 | 78 | % Compound Remaining 2nd ([2]; incubation time 0 minutes): 100%; % Compound Remaining Mean ([2]; incubation time 0 minutes): 100%; % Compound Remaining 1st ([2]; incubation time 15 minutes): 103.4%; % Compound Remaining 2nd ([2]; incubation time 15 minutes): {121.2%; % Compound Remaining Mean ([2]; incubation time 15 minutes): 103%; % Compound Remaining 1st ([2]; incubation time 30 minutes): 68.2%; % Compound Remaining 2nd ([2]; incubation time 30 minutes): {139.0%; % Compound Remaining Mean ([2]; incubation time 30 minutes): 68%; % Compound Remaining 1st ([2]; incubation time 45 minutes): 81.8%; % Compound Remaining 2nd ([2]; incubation time 45 minutes): 94.1%; % Compound Remaining Mean ([2]; incubation time 45 minutes): 88%; % Compound Remaining 1st ([2]; incubation time 60 minutes): 80.4%; % Compound Remaining 2nd ([2]; incubation time 60 minutes): 72.8%; % Compound Remaining Mean ([2]; incubation time 60 minutes): 77%
N[C@@H](Cc1ccc(O)c(O)c1)C(=O)N[C@@H](CC(=O)O)C(=O)O [LD-Asp TFA salt, Levodopa Aspartic Acid] (H-[Dopa]-Asp-OH) | – | – | – | – | – | – | – | – | – | – | – | – | – | – | 99.1 | 99.4 | 99 | 105 | 108 | 107 | –
